One compound from article doi:10.1101/2021.06.15.448612v1 (biorxiv, 2021) can be followed below.

Usually Kd stands for the free concentration of one partner at which half of the binding sites on the other are occupied at equilibrium, for simple one-to-one binding. Lower therefore signals higher affinity.

In this assay the target is MsbA (Escherichia coli, UniProt P60752). The experiment in a line: isothermal titration calorimetry. The assay is classed as binding. (In general: In ITC the heat of successive injections is recorded.)
Sequence of MsbA (P60752 2-582): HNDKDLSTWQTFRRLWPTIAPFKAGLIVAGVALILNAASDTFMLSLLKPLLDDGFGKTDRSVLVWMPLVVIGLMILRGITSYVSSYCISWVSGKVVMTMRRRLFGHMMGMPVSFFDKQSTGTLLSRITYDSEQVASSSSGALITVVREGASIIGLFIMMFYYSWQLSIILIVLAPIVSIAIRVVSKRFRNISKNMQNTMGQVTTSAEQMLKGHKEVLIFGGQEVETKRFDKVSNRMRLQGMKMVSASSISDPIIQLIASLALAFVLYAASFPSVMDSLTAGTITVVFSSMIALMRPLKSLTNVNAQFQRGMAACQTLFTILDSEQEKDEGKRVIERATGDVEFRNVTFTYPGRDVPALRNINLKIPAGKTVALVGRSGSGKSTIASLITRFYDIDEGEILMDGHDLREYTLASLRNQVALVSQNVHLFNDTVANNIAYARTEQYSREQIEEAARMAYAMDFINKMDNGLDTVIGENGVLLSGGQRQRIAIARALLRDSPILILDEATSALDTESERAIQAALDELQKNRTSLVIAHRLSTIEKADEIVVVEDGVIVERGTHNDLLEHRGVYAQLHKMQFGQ

For `Nc1ncnc2c1ncn2[C@@H]1O[C@H](COP(=O)(O)OP(=O)(O)NP(=O)(O)O)[C@@H](O)[C@H]1O` [AMP-PNP], the Kd is 5.1 µM.
